Source: patent US10918610B2, “Compounds and methods of promoting myelination” (Case Western Reserve University, priority 2017, dated 2021)

Columns and labels:
[1] = system: EpiSC-derived OPCs; experiment: Formation of differentiated MBP+ oligodendrocytes from OPCs in vitro (high-content imaging); assay type: cell-based, mouse
From the text: EpiSC-derived OPCs were obtained using in vitro differentiation protocols and culture conditions described previously. To ensure uniformity throughout all in vitro screening experiments, EpiSC-derived OPCs were sorted to purity by fluorescence activated cell sorting at passage five with conjugated CD 140a-APC (eBioscience, 17-1401; 1:80) and NG2-AF488 (Millipore, AB5320A4; 1:100) antibodies. Sorted batches of OPCs were expanded and frozen down in aliquots. OPCs were thawed into growth conditions for one passage before use in further assays. Cultures were regularly tested and shown to be mycoplasma free.
EpiSC-derived OPCs were grown and expanded in poly-ornithine (PO) and laminin-coated flasks with growth medium (DMEM/F12 supplemented with N2-MAX (R&D Systems), B-27 (ThermoFisher), GlutaMax (Gibco), FGF2 ([…], R&D systems, 233-FB-025) and PDGF-AA ([…], R&D systems, 233-AA-050) before harvesting for plating. The cells were seeded onto poly-D-lysine 96-well CellCarrier plates (PerkinElmer) coated with laminin (Sigma, L2020; 15 μg/ml) using multi-channel pipet. For the experiment, 800,000 cells/mL stock in differentiation medium (DMEM/F12 supplemented with N2-MAX and B-27) was prepared and stored on ice for 2 h. […]
Plates were imaged on the Operetta High Content Imaging and Analysis system (PerkinElmer) and a set of 6 fields captured from each well resulting in an average of 1200 cells being scored per well. […] Each traced nucleus region was then expanded by 50% and cross-referenced with the […] (MBP) stain to identify oligodendrocyte nuclei, and from this the percentage of oligodendrocytes was calculated. In some experiments, the total process length of MBP+ oligodendrocytes was calculated as previously described.
OPCs were generated from the EpiSC5 cell line. […] To ensure uniformity throughout all in vitro screening experiments, EpiSC-derived OPCs were sorted to purity by fluorescence activated cell sorting at passage five with conjugated CD 140a-APC (eBioscience, 17-1401; 1:80) and NG2-AF488 (Millipore, AB5320A4; 1:100) antibodies. […]

[2] = system: newly myelinated fibers within the spinal cord; experiment: LPC-induced focal demyelination in the dorsal column of the spinal cord; assay type: in vivo, C57BL/6 female mice; details: 25 mg/kg intraperitoneally daily, days 4 to 13 post laminectomy, versus vehicle
Method: Focal demyelination in the dorsal column of the spinal cord was induced by the injection of 1% LPC solution. 12 week old C57BL/6 female mice were anesthetized using isoflurane and T10 laminectomies were performed. 1 μl of 1% LPC was infused into the dorsal column at a rate of 15 al/hour. At day 4, animals were randomized into treatment groups prior to treatment (2 animals were excluded due to surgical complications). […] Drugs were dissolved in DMSO and ethanol or corn oil and then diluted with sterile saline for injections. This experiment was done in a blinded manner: compounds were coded to ensure the researchers performing the experiments were unaware of the treatment being administered to each animal. […] Mice were anesthetized using ketamine/xylazine rodent cocktail and then euthanized by transcardial perfusion with 4% PFA, 2% glutaraldehyde, and 0.1 M sodium cacodylate. […] The number of myelinated axons per unit areas was counted from sections in the middle of each lesion and then averaged over each treatment group. […]
Focal demyelination in the dorsal column of the spinal cord was induced by the injection of 1% LPC solution. […] The number of myelinated axons per unit area was counted from sections obtained from the middle of each lesion and then averaged over each treatment group. All sections within the lesion area were scored. […]

## CCN(C/C=C\c1ccc(C2CCCCC2)c(Cl)c1)C1CCCCC1 [Cis-N-cyclohexyl-N-ethyl-3-(3-chloro-4-cyclohexylphenyl)prop-2-enylamine]
[1]; 63 nM, 125 nM, 250 nM and 500 nM versus ketoconazole 2.5 μM
  number of differentiated MBP+ oligodendrocytes from OPCs compared with ketoconazole: at higher rates than ketoconazole
[1]; 0.03, 0.1, 0.3 and 1 um, 40,000 cells per well, 3 days
  formation of MBP+ oligodendrocytes in culture (FIG. 1A): enhances formation of MBP+ oligodendrocytes
[1]; wider range of concentrations (2 nM to 500 nM), 50,000 cells per well, N2B27 media, no growth factors
  formation of MBP+ oligodendrocytes in in vitro cultures of OPCs (FIG. 4): enhances formation of MBP+ oligodendrocytes
[2]
  myelin formation in the demyelinated lesion, electron microscopy (FIG. 7C): new myelin formation
  number of toluidine Blue-stained newly myelinated fibers within the spinal cord (FIG. 7F): significantly increased
